The results in this text go back to patent publication US20210087240A1, “BLOCKING GARP CLEAVAGE AND METHODS OF USE THEREOF” (MUSC FOUNDATION FOR RESEARCH DEVELOPMENT, priority 2017, published 2021).

Where a chain is given by its changes, count along the chain named.

Series [1] deals with T1, GARP (Glycoprotein-A Repetitions Predominant Protein), wild type, expressed on PreB cells.
T1 sequence: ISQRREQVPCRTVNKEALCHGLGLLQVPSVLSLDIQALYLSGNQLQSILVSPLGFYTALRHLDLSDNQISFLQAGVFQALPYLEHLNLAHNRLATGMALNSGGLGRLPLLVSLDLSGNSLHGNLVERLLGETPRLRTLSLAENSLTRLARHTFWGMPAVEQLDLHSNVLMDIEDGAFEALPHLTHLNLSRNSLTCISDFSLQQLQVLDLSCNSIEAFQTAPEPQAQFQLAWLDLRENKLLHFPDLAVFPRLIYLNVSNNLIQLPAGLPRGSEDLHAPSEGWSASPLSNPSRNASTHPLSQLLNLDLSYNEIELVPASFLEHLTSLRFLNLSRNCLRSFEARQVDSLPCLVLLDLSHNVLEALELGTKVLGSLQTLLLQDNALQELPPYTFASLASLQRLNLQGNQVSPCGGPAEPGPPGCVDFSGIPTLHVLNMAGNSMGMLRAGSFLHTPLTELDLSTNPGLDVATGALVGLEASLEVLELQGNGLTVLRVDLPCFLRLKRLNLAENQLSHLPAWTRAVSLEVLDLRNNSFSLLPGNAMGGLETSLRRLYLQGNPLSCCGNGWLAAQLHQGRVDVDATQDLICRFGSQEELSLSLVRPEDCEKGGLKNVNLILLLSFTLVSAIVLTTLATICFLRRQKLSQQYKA

Series [2] has as its system T2, GARP double mutant (DM) PR 267-268AA PR 286-287AA, expressed on PreB cells.
T2 sequence: T1 sequence with P249A, R250A, P268A, R269A

Series [3] concerns recombinant form of soluble GARP (sGARP) where the transmembrane domain was replaced by IgG1 Fc fragment.
The subject of series [4] is thrombin activated platelets. The series can be described thus: Flow cytometry of surface GARP/LAP on platelets stimulated with thrombin. The series is classed as cell-based, murine. The method, then:
(§1) FIGS. 7A-7G: Direct thrombin inhibitor Dabigatran Etexilate reduces platelet GARP expression and protects against melanoma and colon cancer. (A) Flow cytometry analysis of surface GARP/LAP complex on murine WT platelets stimulated with and without thrombin and Dabigratan Etexilate. (B) Tumor growth curves of mice subcutaneously injected with B16-F1 melanoma cells and daily treated with 3 mg/mouse of Dabigratan Etexilate. (C) Tumor growth curves of mice subcutaneously injected with MC38 colon cancer cells and daily treated with 3 mg/mouse of Dabigratan Etexilate. (D) Serum was obtained from tumor bearing MC38 colon cancer and active (D) and total TGF-β (E) was measured by ELISA. (F) Serum was obtained from tumor bearing MC38 colon cancer and soluble GARP was measured by ELISA. (G) Percentage of regulatory T cells CD25+ FOXP3+ in the CD4+ tumor-infiltrating CD4+ lymphocytes (TIL) from the indicated mice.
(§2) Now, to establish the clinical relevance of the Thrombin-GARP/TGF-β axis, the direct thrombin inhibitor, Dabigatran Etexilate was employed. […] The anti-tumor efficacy of Dabigatran Etexilate was tested in 2 different tumor models. […] As a further proof of the mechanism employed by dabigatran to exert its antitumor activity, serum active and total TGF-β, and serum GARP concentrations were assessed by ELISA.

Another series has as its system B16-F1 melanoma cells. Nature of the series: B16-F1 melanoma tumor growth in mice. The format is in vivo. The note with it: subcutaneous B16-F1, daily 3 mg/mouse, no adoptive T cell transfer. The method, then: as §1
(§3) (A) Tumor growth curves of mice subcutaneously injected with MC38 colon cancer cells and daily treated with 3 mg/mouse of Dabigatran etexilate. […]
(§4) Now, to establish the clinical relevance of the Thrombin-GARP/TGF-β axis, the direct thrombin inhibitor, Dabigatran Etexilate was employed. […] As a further proof of the mechanism employed by dabigatran to exert its antitumor activity, serum active and total TGF-β, and serum GARP concentrations were assessed by ELISA.

Series [5] deals with MC38 colon cancer cells. The series can be described thus: MC38 colon cancer tumor growth in mice. Conditions: subcutaneous MC38, daily 3 mg/mouse. The series is classed as in vivo. The procedure:
as §1, §3, §4

A further series concerns TGF-β. The series can be described thus: Serum active and total TGF-β ELISA in MC38 tumor bearing mice. The series is classed as in vivo. The method, then:
as §1, §2

The next series relates to soluble GARP. The series can be described thus: Serum soluble GARP ELISA in MC38 tumor bearing mice. The format is in vivo. The method, then:
as §1, §2

The test system of series [6] is regulatory T cells CD25+ FOXP3+. Nature of the series: Regulatory T cells among tumor-infiltrating CD4+ lymphocytes. The format is in vivo, mice. Conditions: CD25+ FOXP3+ in CD4+ TIL. The procedure: as §1, §2
Series [7] concerns MC38 colon cancer cells. Nature of the series: Dabigatran and PD1 blocking antibody combination therapy in MC38 tumor model. The format is in vivo, mice. The note with it: dabigatran 3 mg/mouse daily oral gavage, 200 μg anti-PD1 every 3 days from day 8. An excerpt:
(A) Experimental design for Dabigatran and PD1 blocking antibody combination therapy. (B) Tumor growth curves of mice subcutaneously injected with MC38 colon cancer cells and treated with Dabigatran alone, with PD1 blocking antibody, with the combination of Dabigatran and PD1 blocking antibody or left untreated. (C) Survival curve in MC38-bearing mice treated with Dabigatran alone, with PD1 blocking antibody, with the combination of Dabigatran and PD1 blocking antibody or left untreated. Repeated measurement 2 way Anova was performed in B. Log-rank (Mantel-Cox) was performed in C. (D) Serum was collected from the mice under the dual treatment and analyzed for TGFβ concentration by TGFβ ELISA. (E) Platelets count of the mice under dual treatment. Repeated measurement 2-way ANOVA was performed in B. Log-rank (Mantel-Cox) was performed in C. Two-tailed, independent Student's t-test was used in panel D and E.
Next, Dabigatran was used in combination with PD1 blockade to block thrombin and consequentially platelet activation to achieve both a reduction of systemic and circulating TGF-β, and the abrogation of platelet-mediated tumor support. Platelets, indeed, secrete many other factors beyond TGF-β that facilitate tumor immune evasion. Animals harboring palpable tumors were daily treated with 3 mg/mouse dabigatran by oral gavage. […]

For another series, the system named is TGFβ. Nature of the series: TGFβ ELISA on serum of WT B6 mice treated for one week. The note with it: one week daily gavage of 3 mg/mouse. The series is classed as in vivo. The procedure:
(A) Tumor growth curves of mice subcutaneously injected with MC38 colon cancer cells and daily treated with 3 mg/mouse of Dabigatran etexilate. (B) Tumor growth curves of mice subcutaneously injected with B16-F1 melanoma cells and daily treated with 3 mg/mouse of Dabigatran etexilate. (C) TGFβ ELISA on serum of WT B6 mice treated for one week with daily gavage of 3 mg/mouse of Dabigatran etexilate. Repeated measurement 2-way ANOVA was performed in A and B.

The next series relates to thrombin. The series can be described thus: Competition assay: GARP expressing PreB cells digested with thrombin, western blot. The series is classed as cell-based. Conditions: 4 μg thrombin. An excerpt: FIGS. 12A-12E: Thrombin cleaves GARP at the amino acid position 267 and 286 between proline and arginine. (A) Surface Flow cytometry analysis for GARP of WT PreB cells and GARP expression in PreB cells expressing WT GARP, GARP with single point mutation 267 aa, GARP with single point mutation 286 aa, GARP with double point mutation 267/286 aa (DM), and relative control vector. (B) Western Blot analysis of cells lysates and conditioned media of PreB cells expressing WT GARP, GARP with single point mutation 267 aa, GARP with single point mutation 286 aa, or GARP with double point mutation 267/286 aa using antibody against GARP. (C) PreB cells expressing WT or DM GARP were digested with increasing concentration of thrombin (0, 1, 2, and 4 μg in 25 μl), followed by western blot analysis. (D) Recombinant fragment of GARP containing the two Proline Arginine thrombin binding sites (T250; SEQ ID NO:1). (E) Western blotting analysis of GARP expressing PreB cells digested with 4 μg of thrombin in presence and absence of 4 μg of T250.
Thus, 3 types of mutants: PR 267-268AA (GARP 267), PR 286-287AA (GARP 286), and double mutant (DM) PR 267-268AA PR 286-287AA (GARP 267-286, -DM) were generated. […] Next, it tested whether GARP-DM was resistant to the cleavage of exogenous thrombin. To this end, PreB GARP-WT and PreB GARP-DM were treated with increasing concentrations of thrombin.

As for thrombin, in series [1], the “western blot after digestion of PreB GARP-WT with increasing concentrations of thrombin” value was “Both 44 and 29 KD fragments increased in a dose dependent fashion in GARP-WT”. Also, the “western blot after digestion of PreB GARP-DM with increasing concentrations of thrombin” value in series [2] is reported as “no cleaved products were observed in GARP-DM”. In addition, in series [3], the “western blot of soluble GARP digested with increasing concentrations of thrombin” value was “digestion of soluble GARP with thrombin gave rise to 3 fragments: GARP full length (72 KD), and the 2 smaller fragments of 44 and 29 KD”.
Turning to `CCCCCCOC(=O)NC(=N)c1ccc(NCc2nc3cc(C(=O)N(CCC(=O)OCC)c4ccccn4)ccc3n2C)cc1` [Dabigatran, Dabigatran Etexilate], the “GARP expression on platelets” value in series [4] is “increase of GARP expression on platelets can be neutralized”. Besides, in the series on B16-F1 melanoma cells, the B16-F1 tumor growth entry is recorded as “reduced B16-F1 tumor aggressiveness”. Besides, the MC38 tumor growth entry in the series on MC38 colon cancer cells [5] is recorded as “sufficient to decrease the rate of tumor growth”; in the series with MC38 colon cancer cells [5] (listed as Dabigatran etexilate), “has anti-cancer effect in MC38 colorectal cancer”. Further, the “serum total TGF-β” value in the series on TGF-β is listed as “reduced serum total TGF-β”. Moreover, in the series on TGF-β (difference to untreated not statistically significant), the “serum active TGF-β, mean” value was found to be 42.47±23.73. Besides, in the series on soluble GARP, the “serum soluble GARP” value was “impairs the release of serum soluble GARP from platelets”. For the same molecule, the “TGF-β mediated induction of Tregs in the tumor microenvironment” value in [6] is listed as “reduces the TGF-β mediated induction of Tregs”. Further, the tumor growth result in the series with MC38 colon cancer cells [7] was “effective in reducing tumor growth”. The “systemic active TGFβ” value in the series on TGFβ is “decreases systemic active TGFβ”.
As to “T250: Recombinant fragment of GARP containing the two Proline Arginine thrombin binding sites; DLRENKLLHFPDLAVFPRLIYLNVSNNLIQLPAGLPRGSEDLHAPSEGWSA (SEQ ID NO:1) (GARP peptide)”, the “competition with surface GARP in binding with thrombin” value with thrombin (4 μg T250) is recorded as “competed with surface GARP in binding with thrombin”. Further, the GARP cleavage result in the series with thrombin (in presence of exogenous thrombin, 4 μg T250, western blot) was “able to reduce GARP cleavage”.
